This test has as its target recombinant human PI3Kα (Homo sapiens (Human), UniProt P42336). The test is described as follows: Inhibitory activity on PI3K kinase (ADP-Glo Kinase Assay).

recombinant human PI3Kα, sequence (P42336 whole entry): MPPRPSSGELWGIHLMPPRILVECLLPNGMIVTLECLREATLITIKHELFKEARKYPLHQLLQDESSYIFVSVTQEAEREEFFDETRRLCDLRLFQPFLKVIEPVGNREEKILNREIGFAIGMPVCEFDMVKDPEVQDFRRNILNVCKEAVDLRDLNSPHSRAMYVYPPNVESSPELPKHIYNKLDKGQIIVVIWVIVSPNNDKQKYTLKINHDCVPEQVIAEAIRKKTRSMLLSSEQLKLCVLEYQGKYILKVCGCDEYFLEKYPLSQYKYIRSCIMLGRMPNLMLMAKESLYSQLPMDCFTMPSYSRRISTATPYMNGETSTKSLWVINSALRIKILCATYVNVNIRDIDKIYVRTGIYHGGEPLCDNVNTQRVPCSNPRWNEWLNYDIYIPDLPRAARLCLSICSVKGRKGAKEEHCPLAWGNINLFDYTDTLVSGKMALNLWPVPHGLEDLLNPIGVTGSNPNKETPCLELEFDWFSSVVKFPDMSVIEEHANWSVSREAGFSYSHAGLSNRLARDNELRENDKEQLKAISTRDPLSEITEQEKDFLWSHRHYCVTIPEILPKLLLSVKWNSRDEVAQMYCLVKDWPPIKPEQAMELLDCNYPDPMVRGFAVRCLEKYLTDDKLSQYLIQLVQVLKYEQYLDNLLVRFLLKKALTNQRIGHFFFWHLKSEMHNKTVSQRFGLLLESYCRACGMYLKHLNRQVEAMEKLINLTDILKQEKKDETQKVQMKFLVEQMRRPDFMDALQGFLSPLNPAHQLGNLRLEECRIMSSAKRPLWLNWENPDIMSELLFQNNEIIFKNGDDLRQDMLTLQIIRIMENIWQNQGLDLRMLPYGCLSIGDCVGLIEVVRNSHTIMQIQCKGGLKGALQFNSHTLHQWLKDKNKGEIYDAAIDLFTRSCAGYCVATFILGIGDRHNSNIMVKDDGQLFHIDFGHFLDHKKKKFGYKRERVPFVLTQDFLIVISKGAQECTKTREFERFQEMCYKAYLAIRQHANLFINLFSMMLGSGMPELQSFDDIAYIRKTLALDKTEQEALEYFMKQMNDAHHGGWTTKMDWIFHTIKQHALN
recombinant human PI3Kα, sequence (P27986 whole entry partner): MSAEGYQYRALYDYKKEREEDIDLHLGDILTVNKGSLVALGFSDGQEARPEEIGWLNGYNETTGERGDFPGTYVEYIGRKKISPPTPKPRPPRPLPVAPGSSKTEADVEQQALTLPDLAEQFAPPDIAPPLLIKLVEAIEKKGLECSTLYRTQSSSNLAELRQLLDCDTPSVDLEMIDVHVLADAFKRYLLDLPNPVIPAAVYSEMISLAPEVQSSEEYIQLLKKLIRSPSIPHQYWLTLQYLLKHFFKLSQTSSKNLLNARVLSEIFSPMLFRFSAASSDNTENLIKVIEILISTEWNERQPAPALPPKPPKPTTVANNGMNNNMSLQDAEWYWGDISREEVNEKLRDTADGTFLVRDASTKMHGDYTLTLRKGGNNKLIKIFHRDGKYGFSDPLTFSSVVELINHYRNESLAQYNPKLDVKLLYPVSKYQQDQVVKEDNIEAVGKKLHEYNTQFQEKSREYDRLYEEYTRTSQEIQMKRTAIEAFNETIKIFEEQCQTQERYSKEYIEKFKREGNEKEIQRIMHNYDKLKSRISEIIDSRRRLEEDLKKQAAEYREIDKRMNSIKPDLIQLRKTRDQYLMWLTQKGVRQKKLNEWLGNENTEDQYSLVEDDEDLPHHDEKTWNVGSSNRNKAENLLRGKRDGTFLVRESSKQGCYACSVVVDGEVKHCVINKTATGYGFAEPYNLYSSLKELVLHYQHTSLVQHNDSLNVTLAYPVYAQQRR
Excerpt: The following method is used to determine the degree of inhibition of recombinant human PI3Kα, PI3Kβ, PI3Kγ and PI3Kδ kinase activity by the compounds of the present invention under in vitro conditions. Promega's ADP-Glo Kinase Assay Kit (Cat. No. V9102) was used in this method. The above kit was a luminescence kinase detection kit, which was used to detect the ADP content produced by the kinase reaction. The ADP content was positively correlated with the kinase activity. By measuring the ADP content, the inhibition of the compound on the activity of PI3Kα, PI3Kβ, PI3Kγ and PI3Kδ kinases was reflected. […] Recombinant human PI3Kα, PI3Kγ, and PI3Kδ were purchased from Invitrogen, and PI3Kβ was purchased from Promega (category numbers were PI3Kα: PV4788; PI3Kβ: V1751; PI3Kγ: PV4786 and PI3Kδ: PV6451 separately).

On to `C[C@H](NC(=O)c1c(N)nn2cccnc12)c1nc2cccc(C#Cc3cnn(C4CC4)c3)c2c(=O)n1-c1ccccc1` [Example 2, (S)-2-amino-N-(1-(5-((1-cyclopropyl-1H-pyrazol-4-yl)ethynyl)-4-oxo-3-phenyl-3,4-dihydroquinazolin-2-yl)ethyl)pyrazolo[1,5-a]pyrimidine-3-carboxamide], for which the IC50 was 215 nM.

For the origin of these results see US12447151B2, “Alkyne derivative, preparation method for same, and uses thereof” (ZHEJIANG HISUN PHARMACEUTICAL CO., LTD., priority 2019, dated 2025).
